Experimental data published in patent publication US11447486B2, “2-amino-benzimidazole derivatives and their use as 5-lipoxygenase and/or prostaglandin E synthase inhibitors” (INSTITUT PASTEUR KOREA, priority 2014, dated 2022).
Like-named read-outs stand apart in the source and are kept apart here.

Tests used:
human 5-LOX = target: T1, human 5-LOX (Homo sapiens, UniProt P09917); experiment: 5-LOX enzyme activity, fluorescence method (5-HPETE, H2DCFDA); format: biochemical
T1 construct: purchased Cayman 60402; host or cells: insect cells (lysate)
T1 sequence (P09917 1-674): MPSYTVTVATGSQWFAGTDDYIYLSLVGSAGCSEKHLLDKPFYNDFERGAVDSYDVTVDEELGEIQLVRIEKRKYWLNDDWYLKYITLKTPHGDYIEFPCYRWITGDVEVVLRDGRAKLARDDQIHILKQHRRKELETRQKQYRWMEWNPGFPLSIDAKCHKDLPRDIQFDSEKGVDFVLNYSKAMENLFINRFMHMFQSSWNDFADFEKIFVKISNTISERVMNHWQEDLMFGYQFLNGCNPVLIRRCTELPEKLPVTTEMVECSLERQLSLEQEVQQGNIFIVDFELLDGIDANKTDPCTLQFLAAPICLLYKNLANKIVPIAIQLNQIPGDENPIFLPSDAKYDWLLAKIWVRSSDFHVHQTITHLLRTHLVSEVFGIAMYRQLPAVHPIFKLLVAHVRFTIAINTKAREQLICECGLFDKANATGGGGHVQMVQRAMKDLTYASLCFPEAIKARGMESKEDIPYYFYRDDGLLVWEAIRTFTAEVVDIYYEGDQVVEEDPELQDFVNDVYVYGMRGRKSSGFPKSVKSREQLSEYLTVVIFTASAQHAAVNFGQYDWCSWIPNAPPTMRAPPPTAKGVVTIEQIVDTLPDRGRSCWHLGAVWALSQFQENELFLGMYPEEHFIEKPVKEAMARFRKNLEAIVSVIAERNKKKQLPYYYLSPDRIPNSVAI
Method in brief: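 Compound (0.5 nM to 10 uM) pre-incubated 5 min with enzyme; reaction started with ATP (100 uM final) and arachidonic acid (3 uM final). All steps at room temperature, fluorescence read-out.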

[1] = test system: Rat basophilic leukemia (RBL) cells; experiment: LTB4 secretion assay in RBL (rat basophilic leukemia cells); format: cell-based; conditions: Rattus norvegicus
Method in brief: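 Cells seeded 2×10^4/well the day before, then pre-incubated 15 min at 37 °C in EMEM/0.5% FBS with compound (5 nM to 100 uM). Stimulation with 2.5 uM arachidonic acid plus 5 uM A23187 (final) for 10 min at 37 °C; LTB4 in supernatant quantified by EIA.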

Rat whole blood (RWB) = experiment: LTB4 secretion assay in RWB (rat whole blood); format: cell-based; conditions: Rattus norvegicus
Method in brief: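 Heparinized blood from male Sprague Dawley rats (6-9 weeks) diluted 1:1 in RPMI, pre-incubated 15 min at 37 °C with compound (2.5 nM to 50 uM). Stimulated with 10 uM calcium ionophore A23187 for 10 min at 37 °C, stopped with ice-cold PBS; LTB4 in supernatant quantified by EIA.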

HeLa S3 cells = experiment: PGE2 inhibition assay (HTRF) in TNF-α stimulated HeLa S3 cells; format: cell-based; conditions: Homo sapiens; PGE2, 10 uM compound, HeLa S3 stimulated with TNF-α
Procedure: Human epitheloid cervix carcinoma HeLa S3 cells (2×10^6cells/ml) were seeded with modified F-12K buffer medium pH 7.4 in tissue culture plate and incubated for overnight at 37° C. and 5% CO2. Then medium was changed into new medium contained 10 uM testing compounds or 0.1% DMSO and incubated overnight. After incubation, cells were stimulated with 30 nM TNF-α (Tumor necrosis factor-α) for 16 h. For determination of PGE2, the supernatant was measured by PGE2 HTRF (Homogeneous Time Resolved Fluorescence) assay kit Inhibition of PGE2 by compounds is calculated as a percentage of activity in the presence of drug versus the activity in the stimulator TNF-α.

Structure (SMILES) | IC50 (human 5-LOX; read-out: 5-LO (IC50)) [µM] | EC50 ([1]; RBL) [µM] | EC50 (Rat whole blood (RWB)) [µM] | melting point | inhibition at 10 µM (HeLa S3 cells) [%] | IC50 (human 5-LOX; 5-LO (IC50, uM)) [µM] | EC50 [1] [µM]
Nc1ccc2[nH]c(N3CCC(Oc4ccc(OC(F)(F)F)cc4)C3)nc2c1 (stereo not shown) [Compound 54] | < 1 | < 10 | < 10 |  | > 70 |  | 
Nc1ccc2nc(N)n(Cc3ccc(Oc4ccc(Cl)cc4)cc3)c2c1 [Compound 111] | < 1 | < 10 | < 10 | 156.4 to 158.5 °C |  |  | 
Nc1ccc2nc(NC3CCCC3)n(CCOc3ccc(OC(F)(F)F)cc3)c2c1 [Compound 120] | < 1 | < 10 | < 10 | 200.7 to 201.3 °C |  |  | 
CC(C)(C)c1ccc(CNc2nc3ccc(N)cc3[nH]2)cc1 [Compound 116] | < 1 | < 10 | 10 to 20 | > 130.8 °C |  |  | 
Nc1cc2nc(NCc3ccc(Oc4ccc(Cl)cc4)cc3)[nH]c2cc1Cl [Compound 147] | < 1 | < 10 | < 10 | 191.4 to 193.5 °C |  |  | 
Nc1ccc2c(c1)nc(N)n2CCc1ccc(F)cc1 [Compound 42] | 1 to 10 | 10 to 20 |  | 178.2 to 179.6 °C |  |  | 
Cn1c(NCc2ccc(Oc3nc4ccc(Cl)cc4n3C)cc2)nc2ccc(NC3COC3)cc21 [Compound 423] | < 1 | < 10 |  | 138.9 to 140.8 °C |  |  | 
Nc1ccc2[nH]c(NCc3ccc(N4CCN(c5ccc(OC(F)(F)F)cc5)CC4)cc3)nc2c1 [Compound 114] | < 1 | 10 to 20 | > 20 | > 220 °C |  |  | 
CC(Cc1ccc(Cl)cc1Cl)Nc1nc2cc(N)ccc2[nH]1 (stereo not shown) [Compound 107] | < 1 | < 10 | > 20 | > 200.9 °C |  |  | 
FC(F)(F)Oc1ccc(OC2CCN(c3ccc4nc(N5CCCC5)[nH]c4c3)C2)cc1 (stereo not shown) [Compound 99] | < 1 | < 10 | > 20 |  | > 70 |  | 
CN(C)c1nc2cc(N)ccc2n1CCOc1ccc(OC(F)(F)F)cc1 [Compound 43] | 1 to 10 | < 10 | > 20 | 60.8 to 61.6 °C |  |  | 
Nc1ccc2[nH]c(NCc3ccc(N4CCC(c5ccc(Cl)cc5)CC4)cc3)nc2c1 [Compound 115] | < 1 | > 20 |  | > 220 °C |  |  | 
Nc1ccc2nc(N)n(Cc3ccc(Oc4ccc(Cl)cn4)cc3)c2c1 [Compound 195] | < 1 | < 10 | < 10 |  | < 40 |  | 
Cn1c(NCc2ccc(Oc3ccc(F)cn3)cc2)nc2ccc(N)cc21 [Compound 301] | < 1 | < 10 |  | 121.4 to 124.6 °C |  |  | 
Cn1c(NCc2ccc(Oc3ccc(C(F)(F)F)nc3)cc2)nc2ccc(NC3COC3)cc21 [Compound 226] | < 1 | < 10 | < 10 |  | > 70 |  | 
CC(C)(C)Oc1ccc(CNc2nc3ccc(N)cc3[nH]2)cc1 [Compound 121] | < 1 | < 10 | > 20 | > 59.7 °C |  |  | 
Nc1ccc2nc(NCc3ccc(Cl)cn3)[nH]c2c1 [Compound 158] |  |  |  | 101.8 to 104 °C |  | < 1 | > 20
Cn1c(NCc2ccc(OCc3ccc(Cl)cn3)cc2)nc2ccc(N)cc21 [Compound 314] | < 1 | 10 to 20 |  | 96.6 to 100.9 °C |  |  | 
Cn1c(NCc2ccc(Oc3ccc4c(Cl)cccc4n3)cc2)nc2ccc(NC3COC3)cc21 [Compound 425] | < 1 | < 10 |  | 102.3 to 107.3 °C |  |  | 
CN(C)c1nc2ccc(N)cc2n1CCOc1ccc(OC(F)(F)F)cc1 [Compound 44] | < 1 | < 10 | > 20 | > 133 °C | 40 to 70 |  | 
Cn1c(NCCOc2ccc(OC(F)(F)F)cc2)nc2cc(N)ccc21 [Compound 53] | < 1 | < 10 | < 10 |  | > 70 |  | 

Further lines, with some results ahead:

IC50 (human 5-LOX; read-out: 5-LO (IC50)) [µM] | EC50 ([1]; RBL) [µM] | EC50 (Rat whole blood (RWB)) [µM] | melting point | Structure (SMILES) | inhibition at 10 µM (HeLa S3 cells) [%] | IC50 (human 5-LOX; 5-LO (IC50, uM)) [µM] | EC50 [1] [µM]
< 1 | < 10 | < 10 |  | Nc1ccc2[nH]c(NCc3ccc(Oc4ccc(Cl)cc4)cc3)nc2c1 [Compound 86] | > 70 |  | 
< 1 | < 10 | < 10 |  | Nc1ccc2[nH]c(NCc3cccc(Oc4ccccc4)c3)nc2c1 [Compound 103] | > 70 |  | 
< 1 | < 10 | < 10 | 58.4 to 66.6 °C | Nc1ccc2[nH]c(NCc3ccc(Oc4ccc(F)c(Cl)c4)cc3)nc2c1 [Compound 102] |  |  | 
< 1 | < 10 | < 10 | 116.8 to 118.7 °C | CN(C)c1ccc2[nH]c(NCc3ccc(Oc4ccccc4)cc3)nc2c1 [Compound 98] |  |  | 
< 1 | 10 to 20 |  | 193.3 to 205 °C | Nc1ccc2[nH]c(N3CCC(Oc4ccc(F)cc4)CC3)nc2c1 [Compound 34] |  |  | 
< 1 | 10 to 20 |  | > 207.2 °C | CC(C)(C)c1ccc(Oc2ccc(CNc3nc4cc(N)ccc4[nH]3)cc2)cc1 [Compound 117] |  |  | 
< 1 | < 10 | > 20 | > 113.2 °C | CC(C)(Nc1ccc2[nH]c(NCc3ccc(Oc4ccc(Cl)cc4)cc3)nc2c1)C(N)=O [Compound 118] |  |  | 
< 1 | < 10 | < 10 | > 54.3 °C | c1ccc(Oc2ccc(CNc3nc4cc(NC5CCOC5)ccc4[nH]3)cc2)cc1 (stereo not shown) [Compound 119] |  |  | 
< 1 | < 10 | < 10 | > 173 °C | CC(C)(Nc1ccc2[nH]c(NCc3ccc(Oc4ccccc4)cc3)nc2c1)C(N)=O [Compound 109] |  |  | 
< 1 | < 10 | 10 to 20 | > 107.8 °C | Nc1ccc2[nH]c(NCc3cccc4ccccc34)nc2c1 [Compound 91] | > 70 |  | 
1 to 10 | > 20 |  | > 142.9 °C (dec.) | O=C(Nc1nc2cc(NCc3cnc[nH]3)ccc2[nH]1)c1ccc(F)cc1 [Compound 27] |  |  | 
< 1 | < 10 | < 10 | > 160.8 °C | Nc1ccc2[nH]c(NCc3ccc(Oc4cccc(Cl)c4)cc3)nc2c1 [Compound 122] |  |  | 
